US8198307B2, “Imidazole derivatives having aryl piperidine substituent, method for preparation thereof and pharmaceutical compositions containing same” (Korea Research Institute of Chemical Technology, priority 2007, dated 2012)

What follows are compounds tested against T1, MCH R1 (melanine-concentrating hormone receptor-1) (Homo sapiens, UniProt Q99705) (assay: Inhibitory effects on MCH R1 binding (Eu-MCH time-resolved fluorescence binding assay)). Settings: not given.
T1 construct: purchased Euroscreen, Gosselies, Belgium
Protocol: First, MCH R1 (melanine-concentrating hormone receptor-1; Euroscreen, Gosselies, Belgium), 1 μM Europium-labeled melanine-concentrating hormone (Eu-MCH, PerkinElmer, Turku, Finland) and 1 mM melanine-concentrating hormone (MCH, #070-47, Phoenix, Belmont Calif., USA) were kept at 4° C. for ready use. 1 μM Eu-MCH and 1 mM MCH were diluted with an experimental solution (25 mM HEPES pH 7.4, 5 mM MgCl2, 1 mM CaCl2 and 0.5% (w/w) BSA) to 8 nM (final reaction concentration: 2 nM) and 2 μM (final reaction concentration: 0.5 μM), respectively. The compounds prepared in the Examples (“Test compounds”) were dissolved in the experimental solution in concentration of 4 nM to 40 μM (final reaction concentration: 1 nM to 10 μM). MCH R1 (200 assays/vial) was homogeneously dispersed in the experimental solution.
Then, 100 μl/well of the following reaction mixture was added to the wells of a microplate (Multiwell 96 well filter plates PN5020, Pall Co., Ann Arbor, Mich., USA) equipped with a filter paper, with an 8-channel pipette (multi 8-channel, Eppendorf, Hamburg, Germany). Specifically, to the wells of a non-specific binding control group, 25 μl of Eu-MCH, 50 μl of MCH R1 and 25 μl of MCH were added. Further, 25 μl of the experimental solution supplemented with 10% (w/w) of DMSO, 25 μl of Eu-MCH and 50 μl of MCH R1 were added to the wells of a total binding control group, while 25 μl of the test compounds, 25 μl Eu-MCH and 50 μl of MCH R1 were added to the wells of an experimental group. Subsequently, the microplate was shaken gently for 15 seconds and kept at room temperature for 90 minutes to allow the reaction to take place. Then, the plate was washed with a microplate washer (EMBLA, Molecular Devices) by washing three times with 300 μl of a washing solution (25 mM HEPES pH 7.4, 5 mM MgCl2, 1 mM CaCl2) to remove the residual unreacted Eu-MCH. Moisture was removed from the bottom of the wells and 150 μl of dissociation solution (DELFIA Enhancement solution, PerkinElmer, Turku, Finland) was added to each well, followed by keeping the plate at room temperature for 2 to 4 hours. Subsequently, time-resolved fluorescence (TRF) values were measured with a multilabel counter (Victor2, PerkinElmer, Turku, Finland) (emission wave length: 615 nm, excitation wave length: 340 nm). The inhibition rate based on the time-resolved fluorescence data was calculated using the following Equation (I). Inhibition rate of time-resolved fluorescence (%)=[(Average TRF value of the total binding group−Time-resolved fluorescence value of the test compound)/(Average TRF value of the total binding group−Average TRF value of the non-specific binding group)]×100 (I)

T1 sequence (Q99705 whole entry, species assumed): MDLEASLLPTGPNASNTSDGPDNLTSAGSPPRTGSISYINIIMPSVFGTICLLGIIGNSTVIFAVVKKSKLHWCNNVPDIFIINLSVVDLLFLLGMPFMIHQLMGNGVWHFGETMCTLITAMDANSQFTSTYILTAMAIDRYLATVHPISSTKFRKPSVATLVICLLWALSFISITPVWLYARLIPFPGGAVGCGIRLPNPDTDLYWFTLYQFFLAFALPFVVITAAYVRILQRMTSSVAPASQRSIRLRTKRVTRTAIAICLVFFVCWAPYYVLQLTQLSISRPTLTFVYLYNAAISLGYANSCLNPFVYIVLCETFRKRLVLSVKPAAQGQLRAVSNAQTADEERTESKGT

| SMILES | IC50 |
| --- | --- |
| CC(=O)Nc1cccc(C2CCN(CCCn3c(-c4ccc(Cl)cc4)nc4cc([N+](=O)[O-])ccc43)CC2)c1 [Example 85, 2-(4-chlorophenyl)-1-{3-[4-(3-acetylaminophenyl)piperidin-1-yl]propyl}-5-nitro-1H-benzimidazole] | 70 nM |

Same assay, conditions: concentration inhibiting the binding of MCH (Eu-MCH, 2 nM) to MCH R1 by 50% in vitro; TRF readout; test range 1 nM to 10 μM; read-out: IC50

| IC50 | SMILES |
| --- | --- |
| 8 nM | CC(=O)Nc1cccc(C2CCN(CCCn3c(-c4ccc(Cl)cc4)nc4cc(C(N)=O)ccc43)CC2)c1 [Example 60, 2-(4-chlorophenyl)-1-{3-[4-(3-acetylaminophenyl)piperidin-1-yl]propyl}-5-carbamoyl-1H-benzimidazole] |
| 199 nM | CC(=O)Nc1cccc(C2CCN(CCCn3c(-c4ccc(Cl)cc4)nc4ccc(C(N)=O)cc43)CC2)c1 [Example 61, 2-(4-chlorophenyl)-1-{3-[4-(3-acetylaminophenyl)piperidin-1-yl]propyl}-6-carbamoyl-1H-benzimidazole] |
| 11 nM | CC(=O)Nc1cccc(C2CCN(CCCn3c(-c4cccc(C(N)=O)c4)nc4ccccc43)CC2)c1 [Example 62, 2-(3-carbamoylphenyl)-1-{3-[4-(3-acetylaminophenyl)piperidin-1-yl]propyl}-1H-benzimidazole] |
| 94 nM | CC(=O)Nc1cccc(C2CCN(CCCn3c(-c4ccccc4O)nc4ccccc43)CC2)c1 [Example 63, 2-(2-hydroxyphenyl)-1-{3-[4-(3-acetylaminophenyl)piperidin-1-yl]propyl}-1H-benzimidazole] |
| 5 nM | CC(C)C(=O)Nc1cccc(C2CCN(CCCn3c(-c4ccc(Cl)cc4)nc4ccccc43)CC2)c1 [Example 64, 2-(4-chlorophenyl)-1-{3-[4-(3-isobutyrylaminophenyl)piperidin-1-yl]propyl}-1H-benzimidazole] |
| 19 nM | O=C(Nc1cccc(C2CCN(CCCn3c(-c4ccc(Cl)cc4)nc4ccccc43)CC2)c1)c1ccccc1 [Example 65, 2-(4-chlorophenyl)-1-{3-[4-(3-benzoylaminophenyl)piperidin-1-yl]propyl}-1H-benzimidazole] |
| 213 nM | O=C(Nc1cccc(C2CCN(CCCn3c(-c4ccc(Cl)cc4)nc4ccccc43)CC2)c1)c1cccc(Cl)c1 [Example 66, 2-(4-chlorophenyl)-1-{3-[4-(3-(3-chlorobenzoylamino)phenyl)piperidin-1-yl]propyl}-1H-benzimidazole] |
| > 10000 nM | Cc1ccc(C(=O)Nc2cccc(C3CCN(CCCn4c(-c5ccc(Cl)cc5)nc5ccccc54)CC3)c2)cc1 [Example 67, 2-(4-chlorophenyl)-1-{3-[4-(3-(4-methylbenzoylamino)phenyl)piperidin-1-yl]propyl}-1H-benzimidazole] |
| 110 nM | CC(=O)Nc1cccc(C2CCN(CCCn3c(-c4ccccc4)nc4cc(Br)c(C)nc43)CC2)c1 [Example 68, 6-bromo-5-methyl-2-phenyl-3-{3-[4-(3-acetylaminophenyl)piperidin-1-yl]propyl}-3H-imidazo[4,5-b]pyridine] |
| 22 nM | CC(=O)Nc1cccc(C2CCN(CCCn3c(-c4ccccc4)nc4ccc(C)nc43)CC2)c1 [Example 69, 5-methyl-2-phenyl-3-{3-[4-(3-acetylaminophenyl)piperidin-1-yl]propyl}-3H-imidazo[4,5-b]pyridine] |
| 12 nM | CC(=O)Nc1cccc(C2CCN(CCCn3c(-c4ccc5c(c4)OCO5)nc4ccccc43)CC2)c1 [Example 70, 2-(benzo[1,3]dioxol-5-yl)-1-{3-[4-(3-acetylaminophenyl)piperidin-1-yl]propyl}-1H-benzimidazole] |
| > 10000 nM | CC(C)C(=O)Nc1cccc(C2CCN(CCn3c(-c4ccc(Cl)cc4)nc4ccccc43)CC2)c1 [Example 71, 2-(4-chlorophenyl)-1-{2-[4-(3-isobutyrylaminophenyl)piperidin-1-yl]ethyl}-1H-benzimidazole] |
| 260 nM | CC(=O)Nc1cccc(C2CCN(CCCn3c(-c4ccccc4)nc4ccncc43)CC2)c1 [Example 72, 2-phenyl-3-{3-[4-(3-acetylaminophenyl)piperidin-1-yl]propyl}-3H-imidazo[4,5-c]pyridine] |
| 680 nM | CC(=O)Nc1cccc(C2CCN(CCCn3c(-c4ccccc4)nc4nc(C)c(Br)cc43)CC2)c1 [Example 74] |
| 23 nM | CC(=O)Nc1cccc(C2CCN(CCCn3c(-c4ccccc4)nc4nc(C)ccc43)CC2)c1 [Example 75] |
| 60 nM | COC(=O)c1cccc(-c2nc3ccccc3n2CCCN2CCC(c3cccc(NC(C)=O)c3)CC2)c1 [Example 76, 2-(3-methoxycarbonylphenyl)-1-{3-[4-(3-acetylaminophenyl)piperidin-1-yl]propyl}-1H-benzimidazole] |
| 60 nM | CCc1ccc(-c2nc3ccccc3n2CCCN2CCC(c3cccc(NC(C)=O)c3)CC2)cc1 [Example 77, 2-(4-ethylphenyl)-1-{3-[4-(3-acetylaminophenyl)piperidin-1-yl]propyl}-1H-benzimidazole] |
| 100 nM | CC(=O)Nc1cccc(C2CCN(CCCn3c(-c4ccc(C#N)cc4)nc4cc(C)c(C)cc43)CC2)c1 [Example 78, 2-(4-cyanophenyl)-1-{3-[4-(3-acetylaminophenyl)piperidin-1-yl]propyl}-5,6-dimethyl-1H-benzimidazole] |
| 20 nM | CC(=O)Nc1cccc(C2CCN(CCCn3c(-c4cccc(C)c4)nc4ccccc43)CC2)c1 [Example 79, 2-(m-tolyl)-1-{3-[4-(3-acetylaminophenyl)piperidin-1-yl]propyl}-1H-benzimidazole] |
| 80 nM | CC(=O)Nc1cccc(C2CCN(CCCn3c(-c4ccc(F)cc4Cl)nc4cc(C)c(C)cc43)CC2)c1 [Example 80, 2-(2-chloro-4-fluorophenyl)-1-{3-[4-(3-acetylaminophenyl)piperidin-1-yl]propyl}-5,6-dimethyl-1H-benzimidazole] |
| 70 nM | CC(=O)Nc1cccc(C2CCN(CCCn3c(-c4ccc(Cl)cc4)nc4cc(C#N)ccc43)CC2)c1 [Example 81, 2-(4-chlorophenyl)-1-{3-[4-(3-acetylaminophenyl)piperidin-1-yl]propyl}-5-cyano-1H-benzimidazole] |
| 70 nM | CC(=O)Nc1cccc(C2CCN(CCCn3c(-c4ccc(Cl)cc4)nc4ccc(C#N)cc43)CC2)c1 [Example 82, 2-(4-chlorophenyl)-1-{3-[4-(3-acetylaminophenyl)piperidin-1-yl]propyl}-6-cyano-1H-benzimidazole] |
| 70 nM | CC(=O)Nc1cccc(C2CCN(CCCn3c(-c4ccc(Cl)cc4)nc4cc(F)ccc43)CC2)c1 [Example 83, 2-(4-chlorophenyl)-1-{3-[4-(3-acetylaminophenyl)piperidin-1-yl]propyl}-5-fluoro-1H-benzimidazole] |
| 50 nM | CC(=O)Nc1cccc(C2CCN(CCCn3c(-c4ccc(F)cc4)nc4cc(Cl)ccc43)CC2)c1 [Example 84, 2-(4-fluorophenyl)-1-{3-[4-(3-acetylaminophenyl)piperidin-1-yl]propyl}-5-chloro-1H-benzimidazole] |
| 110 nM | COc1cc(Cl)ccc1-c1nc2cc(C)c(C)cc2n1CCCN1CCC(c2cccc(NC(C)=O)c2)CC1 [Example 86, 2-(4-chloro-2-methoxyphenyl)-1-{3-[4-(3-acetylaminophenyl)piperidin-1-yl]propyl}-5,6-dimethyl-1H-benzimidazole] |
| 70 nM | COc1ccc(Cl)cc1-c1nc2cc(C)c(C)cc2n1CCCN1CCC(c2cccc(NC(C)=O)c2)CC1 [Example 87, 2-(5-chloro-2-methoxyphenyl)-1-{3-[4-(3-acetylaminophenyl)piperidin-1-yl]propyl}-5,6-dimethyl-1H-benzimidazole] |
| > 10000 nM | CC(=O)Nc1cccc(C2CCN(CCCn3c(C)nc4ccccc43)CC2)c1 [Example 88, 2-methyl-1-{3-[4-(3-acetylaminophenyl)piperidin-1-yl]propyl}-1H-benzimidazole] |
| 60 nM | CC(=O)Nc1cccc(C2CCN(CCCn3c(C)nc4cc(C)c(C)cc43)CC2)c1 [Example 89, 2-methyl-1-{3-[4-(3-acetylaminophenyl)piperidin-1-yl]propyl}-5,6-dimethyl-1H-benzimidazole] |
| 80 nM | Cc1nc2ccccc2n1CCCN1CCC(c2cccc(NC(=O)C(C)C)c2)CC1 [Example 90, 2-methyl-1-{3-[4-(3-isobutyrylaminophenyl)piperidin-1-yl]propyl}-1H-benzimidazole] |
